Measured values from patent US11898187B2 (priority 2017, dated 2024).

Target: N-glycosyltransferase from Actinobacillus pleuropneumoniae (Actinobacillus pleuropneumoniae serotype 5b, UniProt A3N2T3)
Experiment: GlycoSCORES: peptide glycosylation by NGT, read by SAMDI-MS
Assay type: biochemical
Details: 50 μM peptide, 2.5 mM UDP-Glc, 0.5 μM purified NGT, 30° C., 3 h

Chain of N-glycosyltransferase from Actinobacillus pleuropneumoniae (A3N2T3 whole entry): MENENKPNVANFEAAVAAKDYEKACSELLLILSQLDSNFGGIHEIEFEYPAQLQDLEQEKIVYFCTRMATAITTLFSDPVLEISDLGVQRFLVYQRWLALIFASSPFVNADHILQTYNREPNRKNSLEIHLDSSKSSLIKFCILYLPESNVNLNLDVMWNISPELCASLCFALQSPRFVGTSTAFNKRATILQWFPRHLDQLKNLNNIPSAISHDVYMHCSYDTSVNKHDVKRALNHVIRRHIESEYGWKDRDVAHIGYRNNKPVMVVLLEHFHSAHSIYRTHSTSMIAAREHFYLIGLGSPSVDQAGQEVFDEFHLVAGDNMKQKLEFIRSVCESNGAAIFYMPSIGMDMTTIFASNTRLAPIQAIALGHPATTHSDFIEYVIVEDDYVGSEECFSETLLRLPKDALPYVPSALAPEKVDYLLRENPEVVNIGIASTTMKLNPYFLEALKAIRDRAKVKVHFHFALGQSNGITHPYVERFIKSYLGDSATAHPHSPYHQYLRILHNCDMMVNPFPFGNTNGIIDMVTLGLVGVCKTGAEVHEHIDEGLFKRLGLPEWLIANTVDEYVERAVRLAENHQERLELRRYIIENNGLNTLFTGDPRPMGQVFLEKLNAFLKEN

CNAT was tested. Which “glucose modification of truncated GSDQNATF peptides” value did it give?
The value was “could be modified by NGT”.

How did the “glucose modification of truncated GSDQNATF peptides” value turn out when QNATFC was run?
The value was “most efficient glucose modification”.

Same assay, conditions: 4-mer peptides, fraction modified (0-1)

ANAT was tested. Which “MO[…]” value did it give?
The value was 0.9101.

How did the “MO[…]” value turn out when ANFT was run?
The value was 0.8633.

With ANHS as the compound, how does the “MO[…]” value read?
Its value is 0.6918.

How did the “MO[…]” value turn out when ANIS was run?
Its value is 0.8694.

With ANLT as the compound, how does the “MO[…]” value read?
The value was 0.6957.

ANMS was tested. Which “MO[…]” value did it give?
The value was 0.5336.

With ANRT as the compound, how does the “MO[…]” value read?
Its value is 0.8206.

Which “MO[…]” value does the source give for ANST here?
The value was 0.7846.

ANTT was tested. Which “MO[…]” value did it give?
The value was 0.7872.

With ANVS as the compound, how does the “MO[…]” value read?
Its value is 0.9611.

For ANVT, which “MO[…]” value is on record?
The value was 0.9844.

With ANYS as the compound, how does the “MO[…]” value read?
Its value is 0.6975.

Which “MO[…]” value does the source give for ANYT here?
Its value is 0.91.

DNHT was tested. Which “MO[…]” value did it give?
Its value is 0.7287.

DNVT was tested. Which “MO[…]” value did it give?
Its value is 0.5073.

With ENHT as the compound, how does the “MO[…]” value read?
The value was 0.7656.

For ENRT, which “MO[…]” value is on record?
Its value is 0.7271.

ENST was tested. Which “MO[…]” value did it give?
Its value is 0.6042.

With ENVS as the compound, how does the “MO[…]” value read?
Its value is 0.6584.

How did the “MO[…]” value turn out when ENVT was run?
The value was 0.8903.

With GNHT as the compound, how does the “MO[…]” value read?
Its value is 0.7856.

For GNVS, which “MO[…]” value is on record?
Its value is 0.6117.

Which “MO[…]” value does the source give for GNVT here?
The value was 0.8843.

With GNWS as the compound, how does the “MO[…]” value read?
The value was 0.72.

Which “MO[…]” value does the source give for GNWT here?
The value was 0.9409.

For GNYT, which “MO[…]” value is on record?
Its value is 0.5195.

For HNAT, which “MO[…]” value is on record?
Its value is 0.7427.

For HNHS, which “MO[…]” value is on record?
Its value is 0.6747.

For HNIS, which “MO[…]” value is on record?
Its value is 0.704.

With HNIT as the compound, how does the “MO[…]” value read?
Its value is 0.8411.

For HNRT, which “MO[…]” value is on record?
The value was 0.6962.

Which “MO[…]” value does the source give for HNVS here?
The value was 0.9185.

For INVT, which “MO[…]” value is on record?
The value was 0.6893.

How did the “MO[…]” value turn out when LNIT was run?
Its value is 0.5288.

For LNVT, which “MO[…]” value is on record?
Its value is 0.6724.

For MNAT, which “MO[…]” value is on record?
Its value is 0.7903.

MNHS was tested. Which “MO[…]” value did it give?
The value was 0.6816.

Which “MO[…]” value does the source give for MNHT here?
The value was 0.855.

With MNIS as the compound, how does the “MO[…]” value read?
Its value is 0.5286.

How did the “MO[…]” value turn out when MNIT was run?
Its value is 0.7393.

With MNMT as the compound, how does the “MO[…]” value read?
Its value is 0.5547.

How did the “MO[…]” value turn out when MNRT was run?
Its value is 0.6724.

Which “MO[…]” value does the source give for MNTT here?
The value was 0.5502.

Which “MO[…]” value does the source give for MNVS here?
Its value is 0.9118.

For MNVT, which “MO[…]” value is on record?
Its value is 0.8374.

NNAT was tested. Which “MO[…]” value did it give?
Its value is 0.7664.

With NNHS as the compound, how does the “MO[…]” value read?
The value was 0.6848.

For NNHT, which “MO[…]” value is on record?
Its value is 0.8624.

With NNRT as the compound, how does the “MO[…]” value read?
Its value is 0.7671.

Which “MO[…]” value does the source give for NNVS here?
The value was 0.7147.

For PNAT, which “MO[…]” value is on record?
The value was 0.8919.

How did the “MO[…]” value turn out when PNFT was run?
The value was 0.8402.

For PNHS, which “MO[…]” value is on record?
The value was 0.6988.

How did the “MO[…]” value turn out when PNIS was run?
Its value is 0.8821.

For PNIT, which “MO[…]” value is on record?
The value was 0.9358.

For PNLT, which “MO[…]” value is on record?
The value was 0.8254.

How did the “MO[…]” value turn out when PNMS was run?
The value was 0.636.

With PNMT as the compound, how does the “MO[…]” value read?
The value was 0.8399.

PNRT was tested. Which “MO[…]” value did it give?
The value was 0.8662.

Which “MO[…]” value does the source give for PNST here?
Its value is 0.8271.

For PNTT, which “MO[…]” value is on record?
Its value is 0.8532.

How did the “MO[…]” value turn out when PNVS was run?
The value was 0.9374.

With PNVT as the compound, how does the “MO[…]” value read?
The value was 0.9741.

How did the “MO[…]” value turn out when PNYS was run?
Its value is 0.6762.

Which “MO[…]” value does the source give for PNYT here?
The value was 0.8963.

QNVT was tested. Which “MO[…]” value did it give?
Its value is 0.5056.

For SNAT, which “MO[…]” value is on record?
Its value is 0.8383.

SNHS was tested. Which “MO[…]” value did it give?
Its value is 0.5937.

With SNHT as the compound, how does the “MO[…]” value read?
Its value is 0.906.

SNIT was tested. Which “MO[…]” value did it give?
The value was 0.7453.

For SNRT, which “MO[…]” value is on record?
The value was 0.6821.

How did the “MO[…]” value turn out when SNST was run?
The value was 0.5156.

With SNTT as the compound, how does the “MO[…]” value read?
The value was 0.5496.

SNVS was tested. Which “MO[…]” value did it give?
Its value is 0.971.

Which “MO[…]” value does the source give for SNVT here?
Its value is 0.9488.

Which “MO[…]” value does the source give for SNYT here?
The value was 0.6177.

TNAT was tested. Which “MO[…]” value did it give?
The value was 0.7761.

TNHS was tested. Which “MO[…]” value did it give?
Its value is 0.5091.

How did the “MO[…]” value turn out when TNHT was run?
The value was 0.8444.

Which “MO[…]” value does the source give for TNST here?
The value was 0.6424.

For TNVS, which “MO[…]” value is on record?
Its value is 0.8695.

Which “MO[…]” value does the source give for TNVT here?
Its value is 0.9096.

With VNAT as the compound, how does the “MO[…]” value read?
The value was 0.6982.

Which “MO[…]” value does the source give for VNIT here?
The value was 0.6873.

Which “MO[…]” value does the source give for VNVT here?
The value was 0.8081.

For WNAT, which “MO[…]” value is on record?
Its value is 0.8599.

For WNHT, which “MO[…]” value is on record?
Its value is 0.8335.

Which “MO[…]” value does the source give for WNIS here?
Its value is 0.746.

How did the “MO[…]” value turn out when WNIT was run?
The value was 0.9275.

With WNRT as the compound, how does the “MO[…]” value read?
The value was 0.6933.

Same assay, conditions: 6-mer sequences in GlycoSCORES peptide screens; 50 μM peptide, 2.5 mM UDP-Glc, 0.025 μM NGT for 1 h

How did the “glycosylation / modification efficiency” value turn out when FANATT was run?
Its value is about 75%.

For YANATS, which “glycosylation / modification efficiency” value is on record?
The value was about 36%.

Same assay, conditions: CFPS NGT, 50 μM peptide, 2.5 mM UDP-Glc, 30° C.

With GGNWTT as the compound, how does the “modification by NGT in GlycoSCORES peptide screens” value (“modification by NGT” below) read?
Its value is “more efficiently glycosylated than any previously studied”.

Which “modification by NGT” value does the source give for GNWTRC here?
Its value is “among the most efficiently glycosylated sequences”.

How did the “modification by NGT” value turn out when NHNETD was run?
Its value is “no detectable modification”.

How did the “modification by NGT” value turn out when YANATT was run?
The value was “efficiently modified”.

Target: T1, NGT (Actinobacillus pleuropneumoniae serotype 5b, UniProt A3N2T3)
Experiment: not given
Assay type: biochemical
Details: 5 μM Im7 variant, 0.1 μM NGT, 2.5 mM UDP-Glc, 2.5 h, 30° C.

T1 sequence (A3N2T3 whole entry): as above

How did the “glycosylation of Im7 variant” value turn out when GGNWTT was run?
The value was “most efficient modification within the Im7 protein”.

Target: T1, NGT
Experiment: not given
Assay type: cell-based
Details: BL21(DE3) E. coli; Fc induced 2 h, then NGT 30 min

GGNWTT was tested. Which “glycosylation of Fc variant in E. coli cytoplasm” value did it give?
Its value is “most efficient glycosylation”.

Same assay, conditions: GlycTag at Asn1366; HMW1ct induced 1 h, then NGT 2 h

GGNWTT was tested. Which “modification of HMW1ct variant in E. coli cytoplasm” value did it give?
The value was “highest modification”.

Target: T1, NGT
Experiment: not given
Assay type: biochemical
Details: 50 μM peptide, 1 mM sugar donor, purified NGT, 30° C.

Which “efficiency of sugar transfer by NGT” value does the source give for `O=c1ccn([C@@H]2O[C@H](COP(=O)(O)OP(=O)(O)O[C@H]3OC[C@@H](O)[C@H](O)[C@H]3O)[C@@H](O)[C@H]2O)c(=O)[nH]1` [UDP-Xyl, UDP-xylose] here?
Its value is “much lower efficiencies”.
